Data from patent US8399383B2, “Protein chips for high throughput screening of protein activity” (Yale University, priority 2000, dated 2013).
“Also recorded” adds a separate entry of the source.

Molecular target: human protein kinase A (PKA) (Homo sapiens, UniProt P17612)
Test: Kinase/inhibitor assay on protein chip (33P-γ-ATP phosphorylation)
Type: biochemical
Settings: peptide and MBP substrates; different concentrations of inhibitor; FIG. 7
Method: Substrates were bound to the surface of the GPTS-treated microwells on the protein chip at room temperature for one hour, then blocked with 1% BSA and 100 mM Tris pH 7.5, and washed three times with TBS buffer. Kinases and different concentrations of kinase inhibitors were added to the microwells in the presence of ^33P-γ-ATP. The phosphorylation reaction was carried out at 30° C. for thirty minutes. After completion of the reaction, the protein chip was washed extensively with TBS buffer at room temperature, and then allowed to dry. Phosphorylation signals were obtained by exposing the protein chip to either X-ray film or a phosphoimager.
A human protein kinase A (PKA), a human map kinase (MAPK), three yeast PKA homologs (TPK1, TPK2 and TPK3), and two other yeast protein kinases (HSL1 and RCK1) were tested against two substrates (i.e., a protein substrate for PKA and a commonly used kinase substrate, MBP) using different concentrations of PKIA (a specific human PKA inhibitor) or SB202190 (a MAPK inhibitor).

## Oc1ccc(-c2nc(-c3ccncc3)c(-c3ccc(F)cc3)[nH]2)cc1 [SB202190]
  inhibition of PKA activity: did not inhibit; also recorded: did not show any inhibitory effect
